# Laboratory results from US20190381017A1, “Compositions Comprising Serdexmethylphenidate Conjugates And Methods Of Use Thereof” (KemPharm, Inc., priority 2018, published 2019).
# Where a name gives a salt, the structure may show the parent alone.
# Assays:
# [1] = system: recreational stimulant users; assay: Intravenous abuse potential, VAS pharmacodynamic scores (Example 2); format: in vivo, human
# Description: “Drug liking” score, used herein, is the score used to assess the degree that a human participant likes a drug effect at the time the question is being asked (that is, at the moment). It is scored using a 0 to 100 point bipolar visual analogue scale (VAS) anchored in the center with a neutral anchor of “neither like nor dislike” (score of 50), on the left with “strong disliking” (score of 0) and on the right with “strong liking” (score of 100).
# “Euphoria” or “Feeling High” score, used herein, is the term to describe the score used to assess the degree that a human participant is high at the time the question is being asked (that is, at the moment). It is scored using a 0 to 100 point unipolar visual analogue scale (VAS) anchored on the left with “Not at All” (score of 0) and on the right with “Extremely” (score of 100).
# “Take Drug Again” score, used herein, is the term to describe the score used to assess the degree that a human participant wants to take the drug again, if given the opportunity, based on his/her opinion now, i.e., at the time the question is being asked. It is scored using a 0 to 100 point unipolar visual analogue scale (VAS) anchored on the left with “Definitely Would Not” (score of 0) and on the right with “Definitely Would” (score of 100).
# “Overall Drug Liking” score, used herein, is the term to describe the score used to assess the human subject's global perception of drug liking (i.e., the subjective effects over the whole course of the drug experience including any carryover effects). Subjects respond to the statement “Overall, my liking for this drug is.” The question is scored using a 0-100 point bipolar VAS anchored on the left with “Strong Disliking” (score of 0); “Neither Like nor Dislike” (score of 50) in the middle, and anchored on the right with “Strong Liking” (score of 100). This scale has the advantage of the human subject being relatively less affected or unaffected by acute study drug effects (if any) by the time of the assessment.
# “Good Effects” score, used herein, is the term to describe the score used to assess the degree that a human participant is feeling good drug effects at the time the question is being asked (that is, at the moment). Subjects respond to the statement “At this moment, I can feel good drug effects.” It is scored using a 0 to 100 point unipolar visual analogue scale (VAS) anchored on the left with “Not at All” (score of 0) and on the right with “Extremely” (score of 100).
# Safety assessments were performed throughout the study.
# [2] = system: healthy, nondependent, recreational stimulant users; assay: Oral abuse potential, VAS pharmacodynamic scores (Example 4); settings: for Drug Liking Emax (mean) / Drug Liking Emax (median) / Feeling Alert/Drowsy Emax (mean) / Feeling Alert/Drowsy Emax (median) / Overall Drug Liking Emax (mean) / Overall Drug Liking Emax (median) / Take Drug Again Emax (mean) / Take Drug Again Emax (median): bipolar VAS; for Any Effects Emax (mean) / Any Effects Emax (median) / Bad Effects Emax (mean) / Bad Effects Emax (median) / Feeling High Emax (mean) / Feeling High Emax (median) / Good Effects Emax (mean) / Good Effects Emax (median): unipolar VAS
# [3] = SDX Cl 30 mg vs placebo, bipolar VAS
# [4] = SDX Cl 30 mg vs placebo, unipolar VAS
# [5] = SDX Cl 30 mg, d-MPH HCl 15 mg, 12 hours
# [6] = SDX Cl 30 mg, d-MPH HCl 15 mg, 12 hours, unipolar VAS
# [7] = SDX Cl 30 mg, d-MPH HCl 15 mg, 24 hours
# [8] = SDX Cl 30 mg, d-MPH HCl 15 mg, 24 hours, unipolar VAS
# [9] = SDX Cl 30 mg, d-MPH HCl 15 mg, bipolar VAS
# [10] = SDX Cl 30 mg, d-MPH HCl 15 mg, unipolar VAS
# [11] = SDX Cl 120 mg, Focalin XR 80 mg, phentermine HCl 60 mg
# [12] = d-MPH HCl 15 mg vs SDX Cl 30 mg, bipolar VAS
# [13] = d-MPH HCl 15 mg vs SDX Cl 30 mg, unipolar VAS
compound,measurement,setting,value
COC(=O)[C@H](c1ccccc1)[C@H]1CCCCN1C(=O)OC[n+]1cccc(C(=O)N[C@@H](CO)C(=O)O)c1.[Cl-] [serdexmethylphenidate chloride],"Mean difference Overall Drug Liking, 12 hours",[1]; [3],2.8
same,"Mean difference Overall Drug Liking, 24 hours",[1]; [3],1.2
same,"Mean difference Overall Drug Liking, Emax",[1]; [3],1.4
same,Median difference Drug Liking Emax,[1]; [3],0.5
same,Mean difference Feeling High Emax,[1]; [4],3.4
same,Mean difference Good Effects Emax,[1]; [4],2.2
same,"Mean difference Take Drug Again, 12 hours",[1]; [4],9.1
same,"Mean difference Take Drug Again, 24 hours",[1]; [4],1.4
same,"Mean difference Take Drug Again, Emax",[1]; [4],6.0
same,Mean Overall Drug Liking,[1]; [5],53.3
same,Median Overall Drug Liking,[1]; [5],50.0
same,Mean Take Drug Again,[1]; [6],17.5
same,Median Take Drug Again,[1]; [6],0.0
same,Mean Overall Drug Liking,[1]; [7],54.8
same,Median Overall Drug Liking,[1]; [7],50.0
same,Mean Take Drug Again,[1]; [8],15.7
same,Median Take Drug Again,[1]; [8],0.0
same,Drug Liking Emax (mean),[1]; [9],56.6
same,Drug Liking Emax (median),[1]; [9],50.5
same,Overall Drug Liking Emax (mean),[1]; [9],55.2
same,Overall Drug Liking Emax (median),[1]; [9],50.0
same,Feeling High Emax (mean),[1]; [10],14.5
same,Feeling High Emax (median),[1]; [10],0.0
same,Good Effects Emax (mean),[1]; [10],15.5
same,Good Effects Emax (median),[1]; [10],0.0
same,Take Drug Again Emax (mean),[1]; [10],19.6
same,Take Drug Again Emax (median),[1]; [10],0.0
same,Mean difference Bad Effects Emax vs placebo,"[2]; SDX Cl 120 mg, Focalin XR 80 mg",1.3
same,Mean difference Any Effects Emax vs placebo,[2]; [11],11.0
same,Mean difference Drug Liking Emax vs placebo,[2]; [11],6.8
same,Mean difference Feeling Alert/Drowsy Emax vs placebo,[2]; [11],7.7
same,Mean difference Feeling High Emax vs placebo,[2]; [11],10.4
same,Mean difference Good Effects Emax vs placebo,[2]; [11],12.1
same,Mean difference Overall Drug Liking Emax vs placebo,[2]; [11],3.8
same,Mean difference Take Drug Again Emax vs placebo,[2]; [11],2.2
same,Drug Liking Emax (mean),[2]; [11],62.8
same,Drug Liking Emax (median),[2]; [11],53.0
same,Feeling Alert/Drowsy Emax (mean),[2]; [11],64.4
same,Feeling Alert/Drowsy Emax (median),[2]; [11],54.0
same,Overall Drug Liking Emax (mean),[2]; [11],58.5
same,Overall Drug Liking Emax (median),[2]; [11],50.0
same,Take Drug Again Emax (mean),[2]; [11],57.4
same,Take Drug Again Emax (median),[2]; [11],50.0
same,Any Effects Emax (mean),[2]; [11],28.8
same,Any Effects Emax (median),[2]; [11],14.0
same,Bad Effects Emax (mean),[2]; [11],6.04
same,Bad Effects Emax (median),[2]; [11],0.0
same,Feeling High Emax (mean),[2]; [11],25.6
same,Feeling High Emax (median),[2]; [11],7.0
same,Good Effects Emax (mean),[2]; [11],27.0
same,Good Effects Emax (median),[2]; [11],10.0
same,Mean difference Any Effects Emax vs placebo,[2]; SDX Cl 240 mg,20.5
same,Mean difference Bad Effects Emax vs placebo,[2]; SDX Cl 240 mg,8.6
same,Mean difference Drug Liking Emax vs placebo,[2]; SDX Cl 240 mg,8.3
same,Mean difference Feeling Alert/Drowsy Emax vs placebo,[2]; SDX Cl 240 mg,11.2
same,Mean difference Feeling High Emax vs placebo,[2]; SDX Cl 240 mg,18.8
same,Mean difference Good Effects Emax vs placebo,[2]; SDX Cl 240 mg,17.4
same,Mean difference Overall Drug Liking Emax vs placebo,[2]; SDX Cl 240 mg,3.3
same,Mean difference Take Drug Again Emax vs placebo,[2]; SDX Cl 240 mg,1.7
same,Drug Liking Emax (mean),[2]; SDX Cl 240 mg,63.8
same,Drug Liking Emax (median),[2]; SDX Cl 240 mg,59.0
same,Feeling Alert/Drowsy Emax (mean),[2]; SDX Cl 240 mg,67.4
same,Feeling Alert/Drowsy Emax (median),[2]; SDX Cl 240 mg,64.0
same,Overall Drug Liking Emax (mean),[2]; SDX Cl 240 mg,58.0
same,Overall Drug Liking Emax (median),[2]; SDX Cl 240 mg,51.0
same,Take Drug Again Emax (mean),[2]; SDX Cl 240 mg,56.9
same,Take Drug Again Emax (median),[2]; SDX Cl 240 mg,50.0
same,Any Effects Emax (mean),[2]; SDX Cl 240 mg,37.0
same,Any Effects Emax (median),[2]; SDX Cl 240 mg,23.0
same,Bad Effects Emax (mean),[2]; SDX Cl 240 mg,13.4
same,Bad Effects Emax (median),[2]; SDX Cl 240 mg,0.0
same,Feeling High Emax (mean),[2]; SDX Cl 240 mg,32.1
same,Feeling High Emax (median),[2]; SDX Cl 240 mg,19.0
same,Good Effects Emax (mean),[2]; SDX Cl 240 mg,30.8
same,Good Effects Emax (median),[2]; SDX Cl 240 mg,15.0
"COC(=O)[C@H](c1ccccc1)[C@H]1CCCCN1 [d-methylphenidate hydrochloride, d-threo-methylphenidate hydrochloride]",Mean Overall Drug Liking,[1]; [5],68.0
same,Median Overall Drug Liking,[1]; [5],73.0
same,Mean Take Drug Again,[1]; [6],61.3
same,Median Take Drug Again,[1]; [6],69.5
same,Mean Overall Drug Liking,[1]; [7],67.3
same,Median Overall Drug Liking,[1]; [7],70.5
same,Mean Take Drug Again,[1]; [8],54.9
same,Median Take Drug Again,[1]; [8],58.5
same,Drug Liking Emax (median),[1]; [9],84.5
same,Overall Drug Liking Emax (mean),[1]; [9],72.4
same,Overall Drug Liking Emax (median),[1]; [9],74.0
same,Feeling High Emax (mean),[1]; [10],77.4
same,Feeling High Emax (median),[1]; [10],79.0
same,Good Effects Emax (mean),[1]; [10],82.1
same,Good Effects Emax (median),[1]; [10],85.0
same,Take Drug Again Emax (mean),[1]; [10],63.3
same,Take Drug Again Emax (median),[1]; [10],72.5
same,Median difference Drug Liking Emax,[1]; [12],29.0
same,"Median difference Overall Drug Liking, 12 hours",[1]; [12],16.0
same,"Median difference Overall Drug Liking, 24 hours",[1]; [12],13.5
same,"Median difference Overall Drug Liking, Emax",[1]; [12],18.0
same,"Mean difference Take Drug Again, 12 hours",[1]; [13],43.3
same,"Mean difference Take Drug Again, 24 hours",[1]; [13],39.2
same,"Mean difference Take Drug Again, Emax",[1]; [13],43.1
same,Median difference Feeling High Emax,[1]; [13],67.0
same,Median difference Good Effects Emax,[1]; [13],73.0
